According to patent publication US20110288154A1, “RNA Interference Mediated Inhibition of Epithelial Sodium Channel (ENaC) Gene Expression Using Short Interfering Nucleic Acid (siNA)” (MERCK & CO., INC., priority 2008, published 2011):
[invAb] = inverted abasic unit; m = 2'-O-methyl; r = 2'-OH (RNA); f = 2'-fluoro

Test system: ENaCα mRNA
Assay: Screening of ENaCα siNAs in human A549 cells (quantitative RT-PCR)
Assay type: cell-based
Design: Percent Reduction of the ENaCα mRNA relative to a non-targeting control siNA (NTC): concentration or dose not given beside the values
Details: for Avg ENaCα Expression / Mean (level of ENaCα expression normalized to the level of GAPDH) / Percent Reduction of the ENaCα mRNA relative to a non-targeting control siNA (NTC) / Avg GAPDH Expression: human A549 cells, n = 3; for Avg ENaCα Expression: 25 nM siNA with Lipofectamine 2000, harvested 24 hours post-transfection; for Mean (level of ENaCα expression normalized to the level of GAPDH) / Percent Reduction of the ENaCα mRNA relative to a non-targeting control siNA (NTC) / Avg GAPDH Expression: 24 hours post-transfection; for Avg GAPDH Expression: housekeeping gene used for normalisation; for IC50 / Human % KD (efficacy of ENaCα mRNA knockdown): human cell line; for IC50: dose response, read-out: Human IC50 (potency of ENaCα mRNA knockdown); for Human % KD (efficacy of ENaCα mRNA knockdown): summary
Description: siNA constructs (Table 1b) may be tested for efficacy in reducing ENaC RNA expression in, for example, A549 human lung carcinoma cells. A549 (human; ATCC cat# CCL-185) cells were cultured at 37° C. in the presence of 5% CO2 and grown in Ham's F12K medium with 2 mM L-glutamine adjusted to contain 1.5 g/L sodium bicarbonate and supplemented with fetal bovine serum at a final concentration of 10% and 100 U/mL penicillin. The A549 cells were plated approximately 24 hours before transfection in 96-well plates at 7,500 cells/well, 100 μl/well. After 24 hours complexes containing siNA and Lipofectamine 2000 (Invitrogen) were created as follows: a solution of Lipofectamine 2000 in OPTI-MEM was prepared containing Lipofectamine 2000 at a final concentration of 14 μg/ml. In parallel, solutions of the siNAs were prepared in OPTI-MEM at a final concentration of 150 nM. After both solutions were incubated at 20° C. for 20 minutes an equal volume of the siNA solutions and the Lipofectamine 2000 solution were added together for each of the siNAs. The resultant solution has the siNAs at a final concentration of 75 nM and Lipofectamine 2000 at a final concentration of 7 μg/ml. This solution was incubated at 20° C. for 20 minutes. After incubation 50 μl of the solution were added to each of the wells (in triplicate). The final concentration of siNA in each well was 25 nM and the final concentration of Lipofectamine 2000 in each well was 2.33 μg/ml. […] Dose response curves were determined in a similar manner with each concentration being done in triplicate and maintaining a constant amount of Lipofectamine 2000 in each transfection.
RNA was extracted from 96-well plates using the Invitek Invisorb RNA Cell HTS 96 Kit/C (Cat# 70619000) with a slightly modified protocol. The details of the protocol for isolating RNA from each plate are described as follows:
1) Aspirate media with rake 2) Add 150 ul/well Lysis buffer 3) Place on plate shaker for 1 minute 4) Place DNA binding plate on top of 0.5 ml collection plate 5) Pipette 190 ul up and down twice and add to DNA binding plate 6) Cover plate 7) Centrifuge plates 4 minutes at 4000 RPM 8) Discard DNA binding plate 9) Place the RNA binding plate on top of 2 ml collection plate 10) Add 150 ul/well of Binding Buffer R to 0.5 ml collection plate 11) Move contents of 0.5 ml collection plate to RNA binding plate 12) Let incubate for 1 minute 13) Centrifuge plates 4 minutes at 4000 RPM 14) Add 600 ul/well of Wash Buffer R1 to RNA binding plate 15) Centrifuge plates 4 minutes at 4000 RPM 16) Dump wash buffer from 2 ml collection plate 17) Add 400 ul/well of Wash Buffer R2 to RNA binding plate 18) Centrifuge plates 4 minutes at 4000 RPM 19) Add 400 ul/well of Wash Buffer R2 to RNA binding plate 20) Centrifuge plates 10 minutes at 4000 RPM 21) Dump wash buffer from 2 ml collection plate 22) Centrifuge plates 3 minutes at 4000 RPM 23) Discard 2 ml collection plate and place RNA binding plate on to microtiter plate 24) Add 100 ul/well of elution buffer to RNA binding plate 25) Incubate for 2 minutes 26) Seal plate 27) Centrifuge plates 3 minutes at 4000 RPM 28) Discard RNA binding plate 29) Cover microtiter plate for storage in −80 freezer
A series of probes and primers were used to detect the various mRNA transcripts of the genes of ENaCa and GAPDH in mouse, rat, and human cell lines. The assays were performed on an ABI 7500 instrument, according to the manufacturer's instructions. Within each experiment, the baseline was set in the exponential phase of the amplification curve, and based on the intersection point of the baselines with the amplification curve, a Ct value was assigned by the instrument. This Ct value was then assigned a QTY value based on the Standard Curve. The standard curve in the various experiments herein used 1 ng to 300 ng of RNA extracted from the same cell line used for the experimental transfections. […]

Substance	Avg ENaCα Expression	Mean (level of ENaCα expression normalized to the level of GAPDH)	Percent Reduction of the ENaCα mRNA relative to a non-targeting control siNA (NTC) [%]	Avg GAPDH Expression	IC50 [pM]	Human % KD (efficacy of ENaCα mRNA knockdown)
B GccAGuGGAGccuGuGGuu TTB / AACcAcAGGcuccAcuGGcUU (sense GCCAGUGGAGCCUGUGGUUTT; antisense AACCACAGGCUCCACUGGCUU; siRNA; sense: DNA at AGT, 2'-fluoro at CU, [invAb] at 5' end, 3' end, backbone not given here; antisense: sugars from the 5' end rrrfmfmmmffffmffmmfmm, backbone not given here) [Site 1757]	66.53	0.66	0.0	101.11		
B GccAuccGccuGGuGuGcu TTB / AGCAcAccAGGcGGAuGGcUU (sense GCCAUCCGCCUGGUGUGCUTT; antisense AGCACACCAGGCGGAUGGCUU; siRNA; sense: DNA at AGT, 2'-fluoro at CU, [invAb] at 5' end, 3' end, backbone not given here; antisense: sugars from the 5' end rrrmfmffmmmfmmrfmmfmm, backbone not given here) [Site 310]	68.10	1.57	−1.0	45.78		
B GcuGuGccuAcAucuucuA TTB / UAGAAGAuGuAGGcAcAGcUU (sense GCUGUGCCUACAUCUUCUATT; antisense UAGAAGAUGUAGGCACAGCUU; siRNA; B caps on sense ends, letter-case modifications not given here, further chemistry not given here) [Site 1388]	36.49	0.30	54.1	120.24	190	55-80%
B GuGGcuGuGccuAcAucuu TTB / AAGAuGuAGGcAcAGccAcUU (sense GUGGCUGUGCCUACAUCUUTT; antisense AAGAUGUAGGCACAGCCACUU; siRNA; sense: DNA at AGT, 2'-fluoro at CU, [invAb] at 5' end, 3' end, backbone not given here; antisense: sugars from the 5' end rrrmfmfmmmfmfmmffmfmm, backbone not given here) [Site 1385]	90.81	0.81	−23.6	119.04		
B GuGuGGcuGuGccuAcAuc TTB / GAUGuAGGcAcAGccAcAcUU (sense GUGUGGCUGUGCCUACAUCTT; antisense GAUGUAGGCACAGCCACACUU; siRNA; B caps on sense ends, letter-case modifications not given here, further chemistry not given here) [Site 1383]	40.44	0.78	49.8	52.36	410	50-70%
B GuccAAccuGGGcAGccAG TTB / CUGGcuGcccAGGuuGGAcUU (sense GUCCAACCUGGGCAGCCAGTT; antisense CUGGCUGCCCAGGUUGGACUU; siRNA; sense: DNA at AGT, 2'-fluoro at CU, [invAb] at 5' end, 3' end, backbone not given here; antisense: sugars from the 5' end rmmmffmfffmmmffmmmfmm, backbone not given here) [Site 1743]	68.82	0.57	13.9	121.24		
B cAGAGcAGAAuGAcuucAu TTB / AUGAAGucAuucuGcucuGUU (sense CAGAGCAGAAUGACUUCAUTT; antisense AUGAAGUCAUUCUGCUCUGUU; siRNA; sense: DNA at AGT, 2'-fluoro at CU, [invAb] at 5' end, 3' end, backbone not given here; antisense: sugars from the 5' end rrrmmmffmffffmffffmmm, backbone not given here) [Site 1100]	66.11	1.14	26.8	64.16		
B cAcAAccGcAuGAAGAcGG TTB / CCGucuucAuGcGGuuGuGUU (chain 1 CACAACCGCAUGAAGACGGTT; chain 2 CCGUCUUCAUGCGGUUGUGUU; siRNA; chain 1: DNA at AGT, 2'-fluoro at CU, [invAb] at 5' end, 3' end, backbone not given here; chain 2: sugars from the 5' end rrrfffffmfmfmmffmfmmm, backbone not given here) [Site 334]	58.30	1.49	4.5	42.86		
B cAcuccuGcuuccAGGAGA TTB / UCUccuGGAAGcAGGAGuGUU (sense CACUCCUGCUUCCAGGAGATT; antisense UCUCCUGGAAGCAGGAGUGUU; siRNA; sense: DNA at AGT, 2'-fluoro at CU, [invAb] at 5' end, 3' end, backbone not given here; antisense: sugars from the 5' end rrrfffmmmmmfmmmmmfmmm, backbone not given here) [Site 1351]	68.14	1.12	28.2	64.22		
B cGcAuGAAGAcGGccuucu TTB / AGAAGGccGucuucAuGcGUU (chain 1 CGCAUGAAGACGGCCUUCUTT; chain 2 AGAAGGCCGUCUUCAUGCGUU; siRNA; chain 1: DNA at AGT, 2'-fluoro at CU, [invAb] at 5' end, 3' end, backbone not given here; chain 2: sugars from the 5' end rrrmmmffmfffffmfmfmmm, backbone not given here) [Site 340]	84.94	1.40	9.9	63.09		
